From patent US6706740B2, “Fungicidal heterocyclic aromatic amides and their compositions, methods of use and preparation” (Dow AgroSciences LLC, priority 1999, dated 2004) come the findings set out here.

Where two headings read alike, the source gives them in different places. Where only a bound is given, the exact number is not on record here.

Experiment [1] concerns Magnaporthe grisea (Pyricularia oryzae—PYRIOR). Put plainly: microbe, parasite or virus in culture. In kind it is cell-based. The settings on record: Pyricularia oryzae, read-out: PYRIOR in vitro Growth Inhibition.
Experiment [2] deals with Rhizoctonia solani (RHIZSO). Put plainly: microbe, parasite or virus in culture. Type of experiment: cell-based. The conditions noted are these: Rhizoctonia solani, read-out: RHIZSO in vitro Growth Inhibition.
The subject of experiment [3] is Mycosphaerella graminicola (Septoria tritici—SEPTTR). Put plainly: In vitro fungal growth inhibition, Mycosphaerella graminicola (SEPTTR). In kind it is cell-based. The conditions noted are these: Zymoseptoria tritici, read-out: SEPTTR in vitro Growth Inhibition.
The subject of experiment [4] is Stagonospora nodorum (Leptosphaeria nodorum—LEPTNO). Put plainly: In vitro fungal growth inhibition, Stagonospora nodorum (LEPTNO). In kind it is cell-based. The conditions noted are these: Leptosphaeria, read-out: LEPTNO in vitro Growth Inhibition.
The subject of a further experiment is Ustilago maydis (USTIMA). Put plainly: microbe, parasite or virus in culture. Type of experiment: cell-based. The conditions noted are these: Mycosarcoma maydis, read-out: USTIMA in vitro Growth Inhibition.
The test system of experiment [5] is Phytophthora infestans (PHYTIN). Nature of the experiment: microbe, parasite or virus in culture. In kind it is cell-based. The settings on record: Phytophthora infestans, read-out: PHYTIN in vitro Growth Inhibition.
Experiment [6] deals with Phytophthora infestans—PHYTIN. Nature of the experiment: whole plant or invertebrate. Type of experiment: in vivo. The settings on record: Phytophthora, in Solanum lycopersicum, 24 h, read-out: PHYTIN in vivo 1 Day Protectant.
Experiment [7] relates to Puccinia recondita—PUCCRT. Put plainly: Brown Rust of Wheat, in vivo whole plant, 24 Hour Protectant. The conditions noted are these: for pest or weed control at 100 ppm: Puccinia, read-out: PUCCRT in vivo 1 Day Protectant; for PUCCRT in vivo 1 Day Protectant: % control of fungal infection vs untreated plants.
The next experiment has as its system Erysiphe graminis—ERYSGT. Nature of the experiment: Powdery Mildew of Wheat, in vivo whole plant, 24 Hour Protectant. The settings on record: Erysiphe, read-out: ERYSGT in vivo 1 Day Protectant.
For the next experiment, the system named is Septoria tritici—SEPTTR. Put plainly: Leaf Blotch of Wheat, in vivo whole plant, 24 Hour Protectant. The conditions noted are these: for pest or weed control at 100 ppm: Zymoseptoria tritici, 24 h, read-out: SEPTTR in vivo 1 Day Protectant; for SEPTTR in vivo 1 Day Protectant: % control of fungal infection vs untreated plants.
Experiment [8] has as its system Leptosphaeria nodorum—LEPTNO. Nature of the experiment: Glume Blotch of Wheat, in vivo whole plant, 24 Hour Protectant. The conditions noted are these: for pest or weed control at 100 ppm: Leptosphaeria, read-out: LEPTNO in vivo 1 Day Protectant.
Where [9] appears, read: wheat plants sprayed at 100 ppm, inoculated after 24 hours, control of fungal infection vs untreated plants.
Where [10] appears, read: 100 ppm spray, 24 hour protectant, wheat, control of fungal infection vs untreated plants.
The mark [11] stands for this setting: 100 ppm spray, wheat, 24 hour protectant.
[12] abbreviates: 100 ppm spray, wheat, 24 hour protectant, % control of fungal infection vs untreated plants.
The mark [13] stands for this setting: 100 ppm spray, wheat, 24 hour protectant, control of fungal infection vs untreated plants.

Take `CC(NC(=O)c1ccncc1O)c1ccc(OC(F)(F)F)cc1` (stereo not drawn) [Compound 511]: the inhibition at 25 ppm (in experiment [1]; in [2]; in [3] (25 ppm in the growth medium); in experiment [4] (25 ppm in the growth medium); with Ustilago maydis (USTIMA); in experiment [5]) was below 80% each time. In addition, the pest or weed control at 100 ppm (in experiment [6]; in [7] (setting [9]); in the experiment on Erysiphe graminis—ERYSGT (setting [9]); in the experiment with Septoria tritici—SEPTTR (setting [9]); in experiment [8] (setting [9])) was below 25% each time.
Regarding `COc1ccnc(C(=O)NC2CCC(Sc3ccccc3)CC2)c1O` (stereo not drawn) [Compound 275], the inhibition at 25 ppm is below 80% in experiment [1]; above 80% in [2]; above 80% in experiment [3] (25 ppm in growth medium); above 80% in experiment [4] (25 ppm in growth medium); below 80% with Ustilago maydis (USTIMA); below 80% in experiment [5]. The pest or weed control at 100 ppm is below 25% in experiment [6]; below 25% in experiment [7] (setting [10]); below 25% in the experiment on Erysiphe graminis—ERYSGT (setting [10]); 25 to 74% with Septoria tritici—SEPTTR (setting [10]); 25 to 74% in [8] (setting [10]).
Consider `COc1ccnc(C(=O)N[C@H]2COC(=O)[C@H](Cc3ccccc3)[C@@H](OC(=O)CC(C)C)[C@H](C)OC2=O)c1OC(C)=O` [Compound 702], for which the inhibition at 25 ppm was below 80% in [1]; below 80% in experiment [2]; below 80% in experiment [3] (25 ppm in growth medium); above 80% in experiment [4] (25 ppm in growth medium); below 80% with Ustilago maydis (USTIMA); below 80% in experiment [5]. For the same compound, the pest or weed control at 100 ppm (in experiment [6]; with Erysiphe graminis—ERYSGT (setting [12])) was below 25% each time. For the same compound, in [7] (setting [11]), the “PUCCRT in vivo 1 Day Protectant” value is reported as “+ +”. Moreover, in the experiment with Septoria tritici—SEPTTR (setting [11]), the “SEPTTR in vivo 1 Day Protectant” value was “+ +”. The “LEPTNO in vivo 1 Day Protectant” value in experiment [8] (setting [12]) is on record as “+ +”.
Regarding `Cc1cc(C)c(C(=O)N[C@H]2COC(=O)[C@H](Cc3ccccc3)[C@@H](OC(=O)C(C)C)[C@H](C)OC2=O)c(O)n1` [Compound 529], the inhibition at 25 ppm (in experiment [1]; in experiment [2]; in experiment [3] (25 ppm in the growth medium); in experiment [4] (25 ppm in the growth medium); with Ustilago maydis (USTIMA); in experiment [5]) was below 80% each time. The pest or weed control at 100 ppm in experiment [6] is below 25%; in [7] (setting [9]), 25 to 74%; with Erysiphe graminis—ERYSGT (setting [9]) it was below 25%; in the experiment with Septoria tritici—SEPTTR (setting [9]), 25 to 74%; in experiment [8] (setting [9]) it was 25 to 74%.
`COc1ccnc(C(=O)N[C@H]2COC(=O)[C@H](Cc3ccccc3)[C@@H](OC(=O)C(C)C)[C@H](C)OC2=O)c1OC(=O)C1CCCCC1` [Compound 612]: the inhibition at 25 ppm was below 80% in experiment [1]; below 80% in experiment [2]; below 80% in experiment [3] (25 ppm in growth medium); above 80% in experiment [4] (25 ppm in growth medium); below 80% in the experiment with Ustilago maydis (USTIMA); below 80% in experiment [5]. Besides, the pest or weed control at 100 ppm (in experiment [6]; with Erysiphe graminis—ERYSGT (setting [12])) was below 25% in each case. For the same compound, the “PUCCRT in vivo 1 Day Protectant” value in [7] (setting [11]) is on record as “+ +”. Moreover, the “SEPTTR in vivo 1 Day Protectant” value in the experiment on Septoria tritici—SEPTTR (setting [11]) is “+ +”. Also, in [8] (setting [12]), the “LEPTNO in vivo 1 Day Protectant” value is “+ +”.
As for `COc1ccnc(C(=O)N[C@@H]2CC3CC2C[C@@H]3COCc2cccc(C(F)(F)F)c2)c1O` (stereo partly drawn) [Compound 297], the inhibition at 25 ppm is above 80% in experiment [1]; above 80% in experiment [2]; above 80% in experiment [3] (25 ppm in growth medium); above 80% in experiment [4] (25 ppm in growth medium); below 80% in the experiment with Ustilago maydis (USTIMA); below 80% in [5]. Further, the pest or weed control at 100 ppm was below 25% in experiment [6]; below 25% in [7] (setting [10]); below 25% with Erysiphe graminis—ERYSGT (setting [10]); 25 to 74% in the experiment with Septoria tritici—SEPTTR (setting [10]); 25 to 74% in experiment [8] (setting [10]).
As for `COc1ccnc(C(=O)Nc2cccc(Oc3cccc(C)c3)c2)c1O` [Compound 413], the inhibition at 25 ppm in experiment [1] is above 80%; in experiment [2] it was below 80%; in experiment [3] (25 ppm in growth medium) it was above 80%; in experiment [4] (25 ppm in growth medium) it was above 80%; in the experiment on Ustilago maydis (USTIMA), below 80%; in [5] it was below 80%. Further, the pest or weed control at 100 ppm in experiment [6] was 25 to 74%; in [7] (setting [13]), 25 to 74%; in the experiment on Erysiphe graminis—ERYSGT (setting [13]) it was below 25%; in the experiment on Septoria tritici—SEPTTR (setting [13]) it was below 25%; in [8] (setting [13]) it was below 25%.
As to `COc1ccnc(C(=O)N[C@H]2CC(C)(C)[C@H](O)C(C)(C)C2)c1O` [Compound 264, trans-4-HYDROXY-3,3,5,5-TETRAMETHYLPICOLINAMIDE], the inhibition at 25 ppm (in [1]; in [2]; in [3] (25 ppm in growth medium); in [4] (25 ppm in growth medium); with Ustilago maydis (USTIMA); in [5]) was below 80% each time. In addition, the pest or weed control at 100 ppm in [6] is below 25%; in [7] (setting [10]), 25 to 74%; with Erysiphe graminis—ERYSGT (setting [10]), below 25%; in the experiment with Septoria tritici—SEPTTR (setting [10]) it was 25 to 74%; in experiment [8] (setting [10]), below 25%.
For the compound `COc1ccnc(C(=O)NC(COC(=O)CCc2ccccc2)C(=O)OC(C)COC(=O)C(C)C)c1OC(C)=O` (stereo not drawn) [Compound 590], the inhibition at 25 ppm (in [1]; in experiment [2]; in [3] (25 ppm in the growth medium); in [4] (25 ppm in the growth medium); in the experiment with Ustilago maydis (USTIMA); in experiment [5]) was below 80% each time. Besides, the pest or weed control at 100 ppm in experiment [6] is below 25%; in experiment [7] (setting [9]), 25 to 74%; in the experiment on Erysiphe graminis—ERYSGT (setting [9]) it was below 25%; in the experiment on Septoria tritici—SEPTTR (setting [9]), 25 to 74%; in [8] (setting [9]), 25 to 74%.
On to `CCCC[C@H]1C(=O)O[C@H](C)C(NC(=O)c2cccc(NC(=O)c3nccc(OC)c3O)c2O)C(=O)O[C@@H](C)[C@@H]1OC(=O)CC(C)C` (stereo partly drawn) [Compound 473], for which the pest or weed control at 100 ppm was below 25% in experiment [6], 25 to 74% in experiment [7] (24 h), below 25% with Erysiphe graminis—ERYSGT (24 h) and 25 to 74% in the experiment on Septoria tritici—SEPTTR. Moreover, the “LEPTNO in vivo 1 Day Protectant” value in experiment [8] (in vivo) was “+ +”.
As for `COc1ccnc(C(=O)N[C@H]2COC(=O)[C@H](Cc3ccccc3)[C@@H](OC(=O)C(C)C)[C@H](C)OC2=O)c1O[Si](C)(C)C(C)(C)C` [Compound 720], the pest or weed control at 100 ppm (in [6]; with Erysiphe graminis—ERYSGT (setting [12])) was below 25% throughout. Besides, the “PUCCRT in vivo 1 Day Protectant” value in experiment [7] (setting [11]) is “+ +”. For the same compound, in the experiment with Septoria tritici—SEPTTR (setting [11]), the “SEPTTR in vivo 1 Day Protectant” value is “+ +”. Besides, the “LEPTNO in vivo 1 Day Protectant” value in experiment [8] (setting [12]) is given as “+ +”.
In the case of `COc1ccnc(C(=O)NC2CCN(C(=O)c3ccccc3)CC2)c1O` [Compound 308], the inhibition at 25 ppm in the experiment with Ustilago maydis (USTIMA) was below 80%. In addition, the pest or weed control at 100 ppm in [6] is below 25%; in experiment [7] (setting [10]) it was below 25%; in the experiment with Erysiphe graminis—ERYSGT (setting [10]) it was 25 to 74%; in the experiment with Septoria tritici—SEPTTR (setting [10]), 25 to 74%; in experiment [8] (setting [10]) it was below 25%.
With `CC(C)C(=O)O[C@H]1[C@H](C)OC(=O)[C@@H](NC(=O)c2ccncc2O)COC(=O)[C@@H]1Cc1ccccc1` [Compound 513], the pest or weed control at 100 ppm in experiment [6] is below 25%; in experiment [7] (setting [9]) it was 25 to 74%; in the experiment on Erysiphe graminis—ERYSGT (setting [9]), below 25%; with Septoria tritici—SEPTTR (setting [9]), below 25%. In experiment [8] (setting [9]), the “LEPTNO in vivo 1 Day Protectant” value is “+ +”.
